Our source for the IC50 values is ChEMBL document CHEMBL1148306, “Reducing the peptidyl features of caspase-3 inhibitors: a structural analysis” (J Med Chem, 2004).

This experiment deals with T1, Caspase-3 (Homo sapiens, UniProt P42574).
T1 sequence (P42574 whole entry): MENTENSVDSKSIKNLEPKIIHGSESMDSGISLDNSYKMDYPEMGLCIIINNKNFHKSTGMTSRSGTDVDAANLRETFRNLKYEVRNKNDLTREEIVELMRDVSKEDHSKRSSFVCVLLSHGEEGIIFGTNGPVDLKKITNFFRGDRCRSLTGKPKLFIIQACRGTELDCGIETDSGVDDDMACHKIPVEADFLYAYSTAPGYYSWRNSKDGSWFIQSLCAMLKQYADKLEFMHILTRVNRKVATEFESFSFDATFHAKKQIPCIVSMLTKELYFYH
In words: Inhibitory concentration of compound against caspase-3.

Structures are written as SMILES. pIC50: −log10 of the molar value.

By pIC50 is commonly meant the negative decadic logarithm of the IC50, by convention in mol/L. As to `COc1ccc(Br)cc1CC(=O)N[C@H](C(=O)N[C@@H](CC(=O)O)C(=O)CSCc1ccccc1)C(C)C`, the pIC50 was 7.75.
